For data set [1], the system named is interferon (α). The experiment in a line: Interferon (α) induction in human cells (in vitro human blood cell system, interferon by bioassay). The class given is cell-based. The conditions noted are these: human PBM's, 48 hours. How it is done: An in vitro human blood cell system was used to assess interferon induction by compounds of the invention. Activity is based on the measurement of interferon secreted into culture media. Interferon is measured by bioassay.
Whole blood is collected by venipuncture into EDTA vacutainer tubes. Peripheral blood mononuclear cells (PBM's) are separated from whole blood by using either LeucoPREP™ Brand Cell Separation Tubes (available from Becton Dickinson) or Ficoll-Paque® solution (available from Pharmacia LKB Biotechnology Inc, Piscataway, N.J.). […] 200 μL portions of PBM suspension are added to 96 well (flat bottom) sterile tissue culture plates (Becton Dickinson Labware, Lincoln Park, N.J.).
The compounds are solubilized in ethanol, dimethyl sulfoxide or tissue culture water then diluted with tissue culture water, 0.01N sodium hydroxide or 0.01N hydrochloric acid (The choice of solvent will depend on the chemical characteristics of the compound being tested.). Ethanol or DMSO concentration should not exceed a final concentration of 1% for addition to the culture wells. Compounds are initially tested in a concentration range of from about 0.1 μg/mL to about 5 μg/mL. Compounds which show induction at a concentration of 0.5 μg/mL are then tested in a wider concentration range.
The solution of test compound is added in a volume (less than or equal to 50 μL) to the wells containing 200 μL of diluted whole blood or of PBM's in media. Solvent and/or media is added to control wells (wells with no test compound) and as needed to adjust the final volume of each well to 250 μL. The plates are covered with plastic lids, vortexed gently and then incubated for 48 hours at 37° C. with a 5% carbon dioxide atmosphere.
Following incubation, the plates are covered with parafilm and then centrifuged at 1000 rpm for 10 to 15 minutes at 4° C. in a Damon IEC Model CRU-5000 centrifuge. Media (about 200 μL) is removed from 4 to 8 wells and pooled into 2 mL sterile freezing vials. Samples are maintained at −70° C. until analysis.
Interferon is determined by bioassay using A549 human lung carcinoma cells challenged with encephalomyocarditis. The details of the bioassay method have been described by G. L. Brennan and L. H. Kronenberg in “Automated Bioassay of Interferons in Micro-test Plates”, Biotechniques, June/Jul. […] The incubated cells are infected with an inoculum of encephalomyocarditis virus. The infected cells are incubated for an additional period at 37° C. before quantifying for viral cytopathic effect. The viral cytopathic effect is quantified by staining followed by spectrophotometric absorbance measurements. Results are expressed as alpha reference units/mL based on the value obtained for NIH HU IF-L standard.
Compounds of the invention were tested for their ability to induce interferon in human cells using the test method described above.

The subject of data set [2] is interferon (α). The experiment in a line: Cytokine induction in human cells: interferon (α) secreted by PBMCs (ELISA or bioassay). The class given is cell-based. The conditions noted are these: 18 to 24 hours. How it is done:
(§1) An in vitro human blood cell system was used to assess cytokine induction by compounds of the invention.
(§2) Whole blood is collected by venipuncture into EDTA vacutainer tubes from healthy human donors. […] The PBMC suspension is added to 48 well flat bottom sterile tissue culture plates (Costar, Cambridge, Mass. or Becton Dickinson Labware, Lincoln Park, N.J.) containing an equal volume of RPMI complete media containing test compound.
(§3) The compounds are solubilized in dimethyl sulfoxide (DMSO). The DMSO concentration should not exceed a final concentration of 1% for addition to the culture wells.
(§4) The solution of test compound is added at 60 μM to the first well containing RPMI complete and serial 3 fold dilutions are made. The PBMC suspension is then added to the wells in an equal volume, bringing the test compound concentrations to the desired range (0.12 to 30 μM). The final concentration of PBMC suspension is 1.5–2×10^6 cells/mL. The plates are covered with sterile plastic lids, mixed gently and then incubated for 18 to 24 hours at 37° C. in a 5% carbon dioxide atmosphere.
(§5) Following incubation the plates are centrifuged for 5–10 minutes at 1000 rpm (˜200×g) at 4° C. The cell culture supernatant is removed with a sterile polypropylene pipet and transferred to sterile polypropylene tubes. Samples are maintained at −30 to −70° C. until analysis. The samples are analyzed for interferon (α) by either ELISA or bioassay and for tumor necrosis factor (α) by ELISA
Interferon is determined by bioassay using A549 human lung carcinoma cells challenged with encephalomyocarditis. […] Briefly stated the method is as follows: A549 cells are incubated with dilutions of samples or a standard interferon at 37° C. for 24 hours. The incubated cells are then infected with an inoculum of encephalomyocarditis virus. The infected cells are incubated for an additional 24 hours at 37° C. before evaluating for viral cytopathic effect. The viral cytopathic effect is quantified by staining with crystal violet followed by visual scoring of the plates. Results are expressed as alpha reference units/mL based on the value obtained for NIH Human Leukocyte IFN standard.
Interferon (α) concentration is determined by ELISA using a Human Multi-Species kit from PBL Biomedical Laboratories, New Brunswick, N.J. according to the manufacturer's instructions.

In data set [3] the test system is tumor necrosis factor (α). The experiment in a line: Cytokine induction in human cells: tumor necrosis factor (α) secreted by PBMCs (ELISA). The data set is classed as cell-based. The following applies: 18 to 24 hours. As for the experimental part: as §1, §2, §3, §4, §5
Tumor necrosis factor (α) (TNF) concentration is determined using ELISA kits available from Genzyme, Cambridge, Mass.; R&D Systems, Minneapolis, Minn.; or Pharmingen, San Diego, Calif. according to the manufacturer's instructions.

SMILES strings stand for the structures. Counter-ions that a name gives are not always drawn.

As for `CCCc1nc2c[n+]([O-])c3ccccc3c2s1` [Example 11, 2-Propylthiazolo[4,5-c]quinoline-5N-oxide], the melting point (as a rule, the temperature of the solid-liquid transition) amounted to 123 °C.
On the same count and under the same terms, to `CCCc1nc2c[n+]([O-])ccc2s1` [Example 61, 2-Propylpyrido[3,4-d][1,3]thiazole-5N-oxide] belongs 137 to 139 °C.
Same read-out and setting: to `CC(C)(O)Cc1nc2c[n+]([O-])c3ccccc3c2s1` [Example 25, 2-Methyl-1-(thiazolo[4,5-c]quinolin-2-yl)-2-propanol-5N-oxide] belongs 187 to 189 °C; to `[O-][n+]1cc2nc(CCc3ccccc3)sc2c2ccccc21` [Example 23, 2-(2-Phenyl-1-ethyl)thiazolo[4,5-c]quinoline-5N-oxide], 165 to 169 °C; to `CCCCc1nc2c[n+]([O-])c3cccnc3c2s1` [Example 57, 2-Butylthiazolo[4,5-c][1,5]naphthyridine-5N-oxide], 65 to 69 °C.
With `Nc1nc2ccccc2c2sc(Cc3ccccc3)nc12` [Example 34, 2-Benzylthiazolo[4,5-c]quinolin-4-amine Hydrochloride], the “Interferon (α) Induction in Human Cells” value in data set [1] (Dose Concentration 0.01 μg/mL), in data set [1] (Dose Concentration 0.05 μg/mL), in data set [1] (Dose Concentration 0.10 μg/mL), in data set [1] (Dose Concentration 0.50 μg/mL), in data set [1] (Dose Concentration 1.0 μg/mL) and in data set [1] (Dose Concentration 5.0 μg/mL) was “−” throughout.
As for `CCCc1nc2c[n+]([O-])c3ccc(C)cc3c2s1` [Example 35, 8-Methyl-2-propylthiazolo[4,5-c]quinoline-5N-oxide], the melting point fell in the range of 143 to 145 °C.
In turn, `CCCCc1nc2c[n+]([O-])c3ccccc3c2s1` [Example 17, 2-Butylthiazolo[4,5-c]quinoline-5N-oxide] had a melting point of 133 to 135 °C.
Consider `CCOCc1nc2c[n+]([O-])c3ccccc3c2s1` [Example 27, 2-(Ethoxymethyl)thiazolo[4,5-c]quinoline-5N-oxide], for which the melting point lay within 138 to 140 °C.
Still for that read-out and setting: the same measure for `CCCCc1nc2c[n+]([O-])c3ccccc3c2o1` [Example 40, 2-Butyloxazolo[4,5-c]quinoline-5N-oxide]: 120 to 121 °C; for `CCc1nc2c(N)nc3ccccc3c2s1.Cl`: 268 to 270 °C; for `Nc1nc2ccccc2c2sc(Cc3ccccc3)nc12` (as salt: hydrochloride) [Example 34, 2-Benzylthiazolo[4,5-c]quinolin-4-amine Hydrochloride]: 152 to 155 °C.
On the same count and under the same terms, to `Nc1nc2ccccc2c2scnc12` [Example 6, Thiazolo[4,5-c]quinolin-4-amine] belongs 172.4 °C (dec.).
Consider `Cl.Nc1nc2ccccc2c2scnc12.O` [Example 5, Thiazolo[4,5-c]quinolin-4-amine Hydrochloride Hydrate], for which the “Interferon (α) Induction in Human Cells” value in data set [1] (Dose Concentration 0.01 μg/mL) is listed as “−”; in data set [1] (Dose Concentration 0.05 μg/mL), “−”; in data set [1] (Dose Concentration 0.10 μg/mL) it was “−”; in data set [1] (Dose Concentration 0.50 μg/mL), “−”; in data set [1] (Dose Concentration 1.0 μg/mL), “+”; in data set [1] (Dose Concentration 5.0 μg/mL) it was “+”. Besides, the “Interferon (α) Induction in Human Cells” value in data set [1] (Dose Concentration 10.0 μg/mL), in data set [1] (Dose Concentration 25.0 μg/mL) and in data set [1] (Dose Concentration 50.0 μg/mL) was “+” throughout.
`[O-][n+]1cc2nc(/C=C/c3ccccc3)sc2c2ccccc21` [Example 21, 2-(2-Phenyl-1-ethenyl)thiazolo[4,5-c]quinoline-5N-oxide] registered a melting point of 268 to 270 °C.
Same read-out and setting: the same measure for `CS(=O)(=O)c1nc2c[n+]([O-])c3ccccc3c2s1` [Example 51, 2-(Methylsulfonyl)thiazolo[4,5-c]quinolin-5N-oxide]: 245 to 247 °C; for `CCCCCc1nc2c[n+]([O-])c3ccccc3c2s1` [Example 15, 2-Pentylthiazolo[4,5-c]quinoline-5N-oxide]: 142 to 144 °C.
In the case of `CCCCc1nc2c(N)nc3ccccc3c2s1` [Example 18, 2-Butylthiazolo[4,5-c]quinolin-4-amine], the “Interferon (α) Induction in Human Cells” value in data set [1] (Dose Concentration 0.01 μg/mL) was “−”; in data set [1] (Dose Concentration 0.05 μg/mL) it was “−”; in data set [1] (Dose Concentration 0.10 μg/mL), “+”; in data set [1] (Dose Concentration 0.50 μg/mL) it was “+”; in data set [1] (Dose Concentration 1.0 μg/mL), “+”; in data set [1] (Dose Concentration 5.0 μg/mL), “+”. The “Interferon (α) Induction” value was “−” in data set [2] (Dose Concentration 0.12 μM); “−” in data set [2] (Dose Concentration 0.37 μM); “+” in data set [2] (Dose Concentration 1.11 μM); “+” in data set [2] (Dose Concentration 3.33 μM); “+” in data set [2] (Dose Concentration 10 μM); “+” in data set [2] (Dose Concentration 30 μM). The “Tumor Necrosis Factor Induction” value in data set [3] (Dose Concentration 0.12 μM), in data set [3] (Dose Concentration 0.37 μM), in data set [3] (Dose Concentration 1.11 μM), in data set [3] (Dose Concentration 3.33 μM), in data set [3] (Dose Concentration 10 μM) and in data set [3] (Dose Concentration 30 μM) was “+” throughout.
Consider `CCCCc1nc2c(N)nc3ccccc3c2o1` [Example 41, 2-Butyloxazolo[4,5-c]quinolin-4-amine], for which the “Interferon (α) Induction in Human Cells” value in data set [1] (Dose Concentration 0.01 μg/mL), in data set [1] (Dose Concentration 0.05 μg/mL), in data set [1] (Dose Concentration 0.10 μg/mL), in data set [1] (Dose Concentration 0.50 μg/mL), in data set [1] (Dose Concentration 1.0 μg/mL) and in data set [1] (Dose Concentration 5.0 μg/mL) was “+” each time.
Consider `CCCc1nc2c(N)nccc2s1` [Example 62, 2-Propylpyrido[3,4-d][1,3]thiazol-4-amine Trifluoroacetate], for which the “Interferon (α) Induction” value in data set [2] (Dose Concentration 0.12 μM), in data set [2] (Dose Concentration 0.37 μM), in data set [2] (Dose Concentration 1.11 μM), in data set [2] (Dose Concentration 3.33 μM), in data set [2] (Dose Concentration 10 μM) and in data set [2] (Dose Concentration 30 μM) was “−” each time. Also, the “Tumor Necrosis Factor Induction” value in data set [3] (Dose Concentration 0.12 μM), in data set [3] (Dose Concentration 0.37 μM), in data set [3] (Dose Concentration 1.11 μM), in data set [3] (Dose Concentration 3.33 μM), in data set [3] (Dose Concentration 10 μM) and in data set [3] (Dose Concentration 30 μM) was “−” throughout.
